Measured values from patent US20240085426A1, “TRIPLE QUADRUPOLE-BASED MULTIPLE REACTION MONITORING FOR CLINICAL THERAPEUTIC RESPONSE PREDICTION IN CANCER” (NATIONAL CANCER CENTER, priority 2020, published 2024).

How the values were obtained:
SNU-5 cells = assay: 72-hour MTT experiment in SNU-5 gastric cancer cell line; assay type: cell-based; conditions: Homo sapiens, SNU-5, MET-amplified cell line
KATO-III cell line = assay: 72-hour MTT experiment in KATO-III gastric cancer cell line; assay type: cell-based; conditions: Homo sapiens, FGFR2-amplified cell line

IC50 (SNU-5 cells)	IC50 (KATO-III cell line)	SMILES
17.5 nM	22.6 nM	C[C@@H](Oc1cc(-c2cnn(C3CCNCC3)c2)cnc1N)c1c(Cl)ccc(F)c1Cl [crizotinib]
> 40 nM	31 nM	COCc1c(-c2cc3cc(C)cc(OC)c3s2)c2c(N)ncnn2c1CN1CCNC(=O)C1 [rogaratinib]
